Measured values published in patent US20070154538A1, “Removal of fat cells by PDT” (CeramOptec GmbH, priority 2005, published 2007).

Experiment: solubility of the photosensitizer in triglycerides
Assay type: physicochemical
Conditions: the main component of adipose cells

Question: For `Oc1cccc(-c2c3nc(c(-c4cccc(O)c4)c4ccc([nH]4)c(-c4cccc(O)c4)c4nc(c(-c5cccc(O)c5)c5ccc2[nH]5)CC4)C=C3)c1` [mTHPC, temoporfin], which “solubility level in the triglycerides” value is on record?
Answer: The value was “low solubility level”.
